{"source": "patent US6063777A", "about": "“Iminochlorinaspartic acid derivatives” (Wyeth Lederle Japan, Ltd., priority 1996, dated 2000)", "key": {"[1]": {"assay": "Laser irradiation to extirpated organ: distribution (cancer/organ ratio) by surface fluorescence, N2-pulsed laser, mice bearing Colon 26", "type": "in vivo, CDF1 mice", "conditions": "mouse, tumor/plasma, sodium salt, 10 mg/kg intravenous", "experimental": "(§1) CDF1 mice (5 per group) were implanted with tumor tissues of colon cancer Colon 26. Two weeks after the implantation, the mice were given an intravenous injection of sodium salt of each of compounds (I) and (II) (10 mg/kg for each mouse) which had been diluted with a distilled water for injection. At 3 hrs, 6 hrs and 12 hrs after the injection, the blood samples were collected and the organs bearing the tumor tissue were extirpated, irradiated with N2 -pulsed laser (N2, wavelength: 337 nm, 2 ns), and the excited fluorescent spectrum was measured. The wavelengths in the range of 600 to 900 nm were examined based on the peak wavelength of NADH at 470 nm (determination of the distribution of the test compound in the organ by the surface fluorescence method using N2 -pulsed laser spectrophotometry). That is, cancer/organ (or plasma) ratio was determined by calculating the peak wavelength in the range of 600 to 900 nm when the peak wavelength at 470 nm was considered as the basic value, 1."}, "[2]": {"test_system": "colon cancer Colon 26", "assay": "Laser irradiation to extirpated organ: distribution (cancer/organ ratio) by surface fluorescence, N2-pulsed laser, mice bearing Colon 26", "type": "in vivo, CDF1 mice", "conditions": "sodium salt, 10 mg/kg intravenous", "experimental": "as §1"}, "[3]": {"test_system": "HeLa cells", "assay": "HeLa cell survival after diode laser (670 nm) irradiation, MTS-PMS reagent", "type": "cell-based", "conditions": "Homo sapiens, HeLa, light or radiation study, sodium salt, 6 hrs, 670 nm, 25 J/cm^2, read-out: Cell Survival Rate", "experimental": "HeLa cells were seeded in wells of a 96-well plate each containing 100 μl of a culture medium at 5×10^3 /well, and incubated at 37° C. overnight. In each well, the culture medium was removed, and 100 μl of a solution containing sodium salt of either of compound (I) or compound (II) in concentrations of 0, 6.25, 12.5, 25, 50 and 100 μM/ml was added (3 wells for each group of the concentrations) and incubated at 37° C. at for 6 hrs. Each well was washed with PBS(-) once, and then 100 μl of a fresh medium was added. The wells were irradiated using a diode laser (670 nm) under the conditions of 0.44W of laser intensity, 0.785 cm^2 of irradiation area (diameter: 1 cm) and 25 J/cm^2 of laser energy. After the irradiation, each well was incubated at 37° C. overnight and washed with PBS(-) once, then 100 μl of a fresh medium was added. To each well was added 20 μl of MTS-PMS reagent, and the well was further incubated at 37° C. for 2-4 hrs. The absorbance of each well at 492 nm was measured using a microplate reader. The cell survival rate at each of the above mentioned concentrations of the test compound was calculated considering the value for the well of 0 μM/ml of the test compound as 100%."}}, "data": [{"smiles": "C=Cc1c(C)c2cc3nc(cc4[nH]c(cc5nc(cc1[nH]2)C(C)(O)C5=CC=NO)c(C)c4CCC(=O)NC(CC(=O)O)C(=O)O)C(CCC(=O)NC(CC(=O)O)C(=O)O)=C3C", "note": "(centres unmarked) [Compound (II), reference compound]", "values": [{"measurement": "Kp at 3 h", "setting": "[1]; 3 hr", "result": 0.3}, {"measurement": "Kp at 6 h", "setting": "[1]; 6 hr", "result": 1.12}, {"measurement": "Kp at 12 h", "setting": "[1]; 12 hr", "result": 0.66}, {"measurement": "Cancer/Brain ratio", "setting": "[2]; 3 hr", "result": 10.10}, {"measurement": "Cancer/Kidney ratio", "setting": "[2]; 3 hr", "result": 0.67}, {"measurement": "Cancer/Liver ratio", "setting": "[2]; 3 hr", "result": 0.62}, {"measurement": "Cancer/Lung ratio", "setting": "[2]; 3 hr", "result": 2.35}, {"measurement": "Cancer/Muscle ratio", "setting": "[2]; 3 hr", "result": 1.23}, {"measurement": "Cancer/Brain ratio", "setting": "[2]; 6 hr", "result": 16.0}, {"measurement": "Cancer/Kidney ratio", "setting": "[2]; 6 hr", "result": 0.59}, {"measurement": "Cancer/Liver ratio", "setting": "[2]; 6 hr", "result": 1.01}, {"measurement": "Cancer/Lung ratio", "setting": "[2]; 6 hr", "result": 4.59}, {"measurement": "Cancer/Muscle ratio", "setting": "[2]; 6 hr", "result": 1.26}, {"measurement": "Cancer/Brain ratio", "setting": "[2]; 12 hr", "result": 15.0}, {"measurement": "Cancer/Kidney ratio", "setting": "[2]; 12 hr", "result": 0.95}, {"measurement": "Cancer/Liver ratio", "setting": "[2]; 12 hr", "result": 1.11}, {"measurement": "Cancer/Lung ratio", "setting": "[2]; 12 hr", "result": 2.68}, {"measurement": "Cancer/Muscle ratio", "setting": "[2]; 12 hr", "result": 2.95}, {"measurement": "viability at 6.25 µM", "setting": "[3]; 6.25 μM", "result": 81, "unit": "%"}, {"measurement": "viability at 12.5 µM", "setting": "[3]; 12.5 μM", "result": 54, "unit": "%"}, {"measurement": "viability at 25 µM", "setting": "[3]; 25 μM", "result": 48, "unit": "%"}, {"measurement": "viability at 50 µM", "setting": "[3]; 50 μM", "result": 35, "unit": "%"}, {"measurement": "viability at 100 µM", "setting": "[3]; 100 μM", "result": 19, "unit": "%"}]}]}
